Converted amounts (≈) assume the structure as drawn. “And” between values parts separate entries of the source, which are not always exact repeats. Identical values can stand only once. Like-named read-outs stand apart in the source and are kept apart here.
Key:
[1] = EFSA 2016; 14 (8): 4557; cited from earlier work
liver inflammation = details: peritonitis mouse model; cited from earlier work
Staphylococcus aureus = experiment: Chequerboard analysis / MIC against Staphylococcus aureus (MRSA cells); format: cell-based
Method: Chequerboard analysis was used to determine whether compounds could be combined to decrease the MIC for Staphylococcus aureus, as compared to each individual compound. In the present experiments, combinations of zingerone plus gentamicin, zingerone plus vancomycin, and zingerone plus cefotaxime were tested. For this testing, 96 well plates were inoculated Staphylococcus aureus, and then incubated with the test compounds for 24 hours at 37° C. For zingerone, additions were made at […], 12.5, and 25 mg/ml. For gentamicin, additions were made at 0, 4, 8, 16, 32, 64, 128, and 256 μg/ml. For vancomycin, additions were made at 0, 4, 8, 16, 32, 64, 128, and 256 μg/ml. For cefotaxime, additions were made at 0, 8, 16, 32, 64, 128, 256, and 512 μg/ml. MRSA cells (methicillin-resistant Staphylococcus aureus) were introduced in Mueller Hinton media with 2% NaCl. 10^8 cells per ml were utilised. The FICI index was used to quantify the interaction of the compounds interact employing the following equation: FICI=(MICA^combi/MICA^alone)+ (MICB^combi/MICB^alone). A FICI of ≤0.5 was designated as synergy, and a FICI of >4.0 was defined as antagonism. A FICI of 0.5 to 1.0 was deemed as a significant improvement although not synergistic.

[2] = cited from earlier work
Pseudomonas aeruginosa = details: cited from earlier work
[3] = individual compound, 24 hours at 37° C., MRSA in Mueller Hinton media with 2% NaCl

## COc1cc(CCC(C)=O)ccc1O [Zingerone]
[1]
  No Observed Adverse Effects (NOAEL) dose: 128 mg/kg/day
Liver inflammation
  effect on liver inflammation: anti-inflammatory effect
Staphylococcus aureus; [3]
  MIC: 25 mg/g
Staphylococcus aureus; zingerone in combination with cefotaxime
  MIC: 25 mg/g
Staphylococcus aureus; zingerone in combination with gentamicin
  MIC: 6.25 mg/g
Staphylococcus aureus; zingerone in combination with vancomycin
  MIC: 12.5 mg/g
[2]; FoodB compounds database
  Log P: 2.02 and 1.92
  water solubility: 0.57 g/L (≈ 2930 µM)
[2]; reported
  solubility (in words): sparingly soluble in water
Pseudomonas aeruginosa
  effect on susceptibility of cells to antibiotics: enhance the susceptibility

## Gentamicin [reference compound]
Staphylococcus aureus; gentamicin in combination with zingerone
  MIC: 4 µg/mL
Staphylococcus aureus; [3]
  MIC: 16 µg/mL

## CO/N=C(\C(=O)N[C@@H]1C(=O)N2C(C(=O)O)=C(COC(C)=O)CS[C@H]12)c1csc(N)n1 [Cefotaxime, reference compound]
Staphylococcus aureus; Staphylococcus aureus, individual compound, 24 hours at 37° C., MRSA in Mueller Hinton media with 2% NaCl, read-out: MIC
  MIC: > 512 µg/mL

## CN[C@H](CC(C)C)C(=O)N[C@H]1C(=O)N[C@@H](CC(N)=O)C(=O)N[C@H]2C(=O)N[C@H]3C(=O)N[C@H](C(=O)N[C@H](C(=O)O)c4cc(O)cc(O)c4-c4cc3ccc4O)[C@H](O)c3ccc(c(Cl)c3)Oc3cc2cc(c3O[C@@H]2O[C@H](CO)[C@@H](O)[C@H](O)[C@H]2O[C@H]2C[C@](C)(N)[C@H](O)[C@H](C)O2)Oc2ccc(cc2Cl)[C@H]1O [Vancomycin, reference compound]
Staphylococcus aureus; Staphylococcus aureus, MRSA, 24 h
  MIC: 8 µg/mL

Reference: patent US20240351967A1, “METHODS OF PREPARATION OF ZINGERONE, COMPOSITIONS COMPRISING ZINGERONE, AND USES THEREFOR” (Evithe Limited, priority 2021, published 2024)
